Laboratory results as given in patent publication US10092537B2, “Use for PAI-1 inhibitor” (RENASCIENCE CO., LTD., priority 2013, dated 2018).

Columns and labels:
[1] = test system: CML cells (32Dp210-GFP cells); assay: Chronic myelogenous leukemia model mice, imatinib and compound c (Experimental Example 12); format: in vivo
Protocol: Chronic myelogenous leukemia model mice prepared in the same manner as in Experimental Example 11 were divided into the following 3 groups (each group: n=10), and the groups were administered respective test drugs in accordance with the protocol shown in FIG. 15A.
(§1) Group 1: placebo group (physiological saline was administered via gavage)
(§2) Group 2: imatinib group (imatinib [150 mg/kg/day] was administered via gavage)
Group 3: imatinib+compound c group (imatinib [150 mg/kg/day] and compound c [10 mg/kg/day] were administered via gavage)
8 days (day 8) after the day on which CML cells (32Dp210-GFP cells) were intravenously inoculated (day 0), administration of the test drugs to the groups was started. The placebo group and the imatinib group were administered the respective test drugs once a day from day 8 to day 14 (7 doses in total). The imatinib+compound c group was administered imatinib once a day from day 8 to day 14 (7 doses in total), and also administered compound c once a day from day 8 to day 14 (7 doses in total).

hematopoietic stem cells [2] = assay: Hematopoietic recovery after bone-marrow transplantation, compounds a, b, c (Experimental Example 5); format: in vivo, mice; details: for frequency of hematopoietic stem cells / self-renewal capacity of hematopoietic stem cells: compound a 100 mg/kg oral 4 days, compounds b and c 10 mg/kg oral 6 consecutive days after bone-marrow transplantation
Protocol: The procedures of Experimental Examples 4 (1) and 4 (4) were repeated using compounds b and c, instead of compound a, as a test compound.
Compound a was orally administered in an amount of 100 mg/kg for 4 consecutive days after bone-marrow transplantation. Compounds b and c were orally administered in an amount of 10 mg/kg for 6 consecutive days after bone-marrow transplantation.
Bone marrow was collected 1 and 3 weeks after bone-marrow transplantation. The total number of the whole bone-marrow cells (FIG. 9E), the proportion (%) of LSK-CD34 negative cells in the whole bone marrow (FIG. 9A), the total number of LSK-CD34 negative cells in the whole bone marrow (FIG. 9B), the proportion (%) of Lin-SLAM cells in the whole bone marrow (FIG. 9C), and the total number of Lin-SLAM cells in the whole bone marrow (FIG. 9D) were measured. The results are shown in the above-stated figures.

[3] = Single-dose toxicity test using rat (Experimental Example 6); details: 500, 1,000, and 2,000 mg/kg oral gavage
[4] = test system: CML cells (32Dp210-GFP cells); assay: Chronic myelogenous leukemia model mice, imatinib and compound a (Experimental Example 11); format: in vivo, C3H/HeJ mice
Protocol: p210(BCR-ABL) gene was inserted into a MIGR1 vector, and GFP cDNA was further incorporated as a reporter gene downstream of the gene (hereinafter, the vector is referred to as “p210-GFP”). p210-GFP was infected with 32D cells (C3H/HeJ mice cell line), and chronic myelogenous leukemia (hereinafter, referred to as “CML”) cells were prepared. 2.5×10^5 of the thus-obtained CML cells (32Dp210(BCR-ABL)-GFP cells, hereinafter, referred to as “32Dp210-GFP cells”) were intravenously administered into the retro-orbital plexus of C3H/HeJ mice. 7 to 10 days after the transplantation, the abundance ratio of GFP cells in the peripheral blood was analyzed, and mice with more than 3% of abundance ratio were used as chronic myelogenous leukemia model mice in the following experiments.
15 chronic myelogenous leukemia model mice prepared by using the procedure described above were divided into the following 3 groups (each group: n=15), and a test drug was administered to the mice in accordance with the protocol shown in FIG. 15A.
as §1, §2
Group 3: imatinib+compound a group (imatinib [150 mg/kg/day] and compound a [100 mg/kg/day] were administered via gavage)
(§3) 10 days (day 10) after the day on which CML cells were intravenously inoculated (day 0), administration of test drugs to the groups was started. The placebo group and the imatinib group were administered the respective test drugs once a day from day 10 to day 16 (7 doses in total). The imatinib+compound a group was administered imatinib once a day from day 10 to day 16 (7 doses in total), and also administered compound a once a day from day 10 to day 14 (5 doses in total).
As described above, 32Dp210-GFP includes GFP as a reporter gene, and thus, the CML cells having 32Dp210-GFP inserted (32Dp210-GFP cells) are GFP-positive. Therefore, using FACS (FACS (BD Biosciences: FACSCalibur), the frequency of CML cells (32Dp210-GFP cells) in mononucleic cells of the bone marrow and spleen was measured and compared between the imatinib group and the imatinib+compound a group.

CML cells = assay: Chronic myelogenous leukemia model mice, compound a alone, imatinib, combination (Experimental Example 16); format: in vivo; details: day 10 to day 16
Protocol: as §1
Group 2: compound a group (compound a [100 mg/kg/day] was administered via gavage)
Group 3: imatinib group (imatinib [150 mg/kg/day] was administered via gavage)
Group 4: imatinib+compound a group (imatinib [150 mg/kg/day] and compound a [100 mg/kg/day] were administered via gavage)
as §3, with “days after” for “days”, “10)” for “10) after”, “placebo group, the compound a group,” for “placebo group”, “day 16 (7” for “day 14 (5”

hematopoietic stem cells [5] = assay: Frequency and absolute number of hematopoietic stem cells after bone-marrow transplantation (Experimental Example 8 (1)); format: in vivo, mice; details: 1 and 3 weeks after bone-marrow transplantation
Protocol: In accordance with the procedure of Experimental Example 7 (1), bone marrow was transplanted, and tPA or compound a was administered in the same manner as in Experimental Example 7. Physiological saline was administered to a control group. 1 and 3 weeks after bone-marrow transplantation, 12 mice of each group were measured for the number of bone-marrow mononucleic cells (BM MNC), the frequency and absolute number of Lin-SLAM cells, and the frequency and absolute number of LSK-CD34 negative cells.

[6] = imatinib 150 mg/kg/day + compound a 100 mg/kg/day
[7] = compound a 100 mg/kg oral, 4 consecutive days, 1 and 3 weeks after bone-marrow transplantation, versus vehicle

## O=C(Nc1ccc(Cl)cc1C(=O)O)c1cccc(-c2ccccc2)c1 [Example 4, 2-[(biphenyl-3-ylcarbonyl)amino]-5-chlorobenzoic acid]
[1]; imatinib 150 mg/kg/day + compound c 10 mg/kg/day via gavage, day 8 to day 14
  survival rate on day 40: 70%
[1]; imatinib 150 mg/kg/day + compound c 10 mg/kg/day, placebo 15.5 days
  median survival period: 40 days
Hematopoietic stem cells [2]
  frequency of hematopoietic stem cells: increase
  self-renewal capacity of hematopoietic stem cells: enhance

## O=C(COCC(=O)N1CCN(C(c2ccccc2)c2ccccc2)CC1)Nc1ccc(Cl)cc1C(=O)[O-].[Na+] [Example 30 (compound group 2), 2-(2-(2-(4-benzhydrylpiperazin-1-yl)-2-oxoethoxy)acetamido)-5-chlorobenzoic acid sodium salt]
[3]; after 2 weeks
  autopsy findings: no particular abnormality
[3]; male and female rats
  abnormality during 2-week monitoring: None of the male and female rats showed abnormality
[3]; male and female rats, monitored 2 weeks
  toxicity given in a single dose: low
[4]; imatinib 150 mg/kg/day (day 10-16) + compound a 100 mg/kg/day (day 10-14) via gavage
  survival rate on day 50: 60%
[4]; [6]
  frequency of 32Dp210-GFP cells in bone-marrow mononucleic cells: about 1.7%
  frequency of CML cells (32Dp210-GFP cells) in the spleen: about 6.6%
[4]; imatinib 150 mg/kg/day + compound a 100 mg/kg/day via gavage, placebo 14 days
  median survival period: 40 days
Hematopoietic stem cells [2]
  frequency of hematopoietic stem cells: increase
  self-renewal capacity of hematopoietic stem cells: enhance
Hematopoietic stem cells [2]; [7]
  plg level, tPA level, cKitL level, total MMP-9 level in the plasma and white blood cell count in the peripheral blood: significantly higher
  proportion and total number of LSK-CD34 negative cells and Lin-SLAM cells in the whole bone marrow: significantly higher
CML cells; compound a 100 mg/kg/day alone, all of the subject mice, as placebo
  survival: died during the period from day 10 to day 20
CML cells; imatinib 150 mg/kg/day + compound a 100 mg/kg/day via gavage
  survival rate on day 50: 60%
Hematopoietic stem cells [5]
  LSK-CD34 negative cells (frequency and absolute number): markedly increased
  frequency and absolute number of Lin-SLAM cells: markedly increased
Hematopoietic stem cells [5]; compared with control group
  number of bone-marrow mononucleic cells: significantly increased
